Like-named read-outs stand apart in the source and are kept apart here.

The subject of one data set is FL5.12/Bcl-xL cells. In words: Cell death upon IL-3 deprivation in Bcl-xL overexpressing cells. It counts as cell-based. The following applies: PI staining. From the text:
This effect could be overcome by a higher dose of BH3Is (FIG. 9E). Inactivation of Bcl-xL by BH3Is in FL5.12/Bcl-xL cells was detected as an increase in cell death following IL-3 deprivation.

The subject of data set [1] is Bak BH3 peptide / Bcl-xL (Bcl-xL/GST, Bcl-xL-His6) interaction. In words: Fluorescence polarization assay, labeled Bak BH3 peptide binding to Bcl-xL fusion protein. The following applies: for order of affinities of BH3Is: overall rank order from FP, NMR, pulldown and SELDI results; for order of decreasing affinity, fluorescence polarization assays: rank order. From the text:
We have used a fluorescence polarization assay to screen a library of 16,000 chemical compounds (ChemBridge, San Diego, Calif.) to identify small molecules that inhibit the interaction between a peptide corresponding to the BH3 domain of a pro-apoptotic protein and a recombinant Bcl-xL/GST fusion protein. In this assay, an […] peptide corresponding to the BH3 domain of Bak was used. The Bak peptide was labeled with a fluorescent tag, such as OREGON GREEN. Upon binding of the tagged peptide to the Bcl-xL/GST fusion protein, the polarization of light emitted by the tagged peptide is altered. […] Conversely, in a sample in which a compound does inhibit the interaction between the Bak peptide and the Bcl-xL/GST fusion protein the polarization of light emitted by the peptide will not be altered.
A nineteen amino acid Bak peptide, corresponding to the BH3 domain of Bak, with the sequence […] (SEQ ID NO: 2) was labeled with the fluorophore OREGON GREEN according to the manufacturer's instructions (Molecular Probes, Eugene, Oreg.). In addition, a recombinant Bcl-xL/GST fusion protein was generated using conventional techniques known to those skilled in the fields of biochemistry and molecular biology. The interaction between the Bak peptide and the Bcl-xL/GST fusion protein was confirmed.
A screen of approximately 16,000 compounds from the ChemBridge chemical compound library was conducted to identify compounds that disrupt the interaction between the Bak peptide and the Bcl-xL/GST fusion protein. The ability of a compound to disrupt the interaction between the two polypeptides was assessed using a fluorescence polarization assay. The Bak peptide and Bcl-xL/GST fusion protein (15 nM each; dissolved in PBS) were first combined, and then the compound was added. Alternatively, the Bak peptide, Bcl-xL/GST fusion protein, and test compound (5 mg/ml; dissolved in 0.1-0.5 gl of DMSO) may be combined in any order. Normally the unbound Bak polypeptide results in polarization of approximately 40 mP units. Upon binding of the Bcl-xL/GST fusion protein, polarization increased to approximately 100-120 mP units.
In a preferred method, the fluorescence assay was carried out as follows. Bak BH3 peptide (Research Genetics) was labeled using NHS-OREGON GREEN (Molecular Probes) and purified by HPLC. For the initial screening assays, 33 nM of labeled BH3 peptide, 2 μM of GST-Bcl-xL protein, 0.1% bovine gamma globulin (BGG, Sigma) and 1 mM DTT mixed with PBS, pH 7.2 (Gibco) were added into 384 well black plates (Lab Systems) using MULTIDROP (Lab Systems). Small molecules (5 mg/ml in DMSO, ChemBridge) were transferred using plastic 384-pin arrays (Genetix). The plates were incubated for 1-2 hr at 25° C., and the fluorescence polarization assay values were determined using an Analyst plate reader (LJL Biosystems). Reactions containing 16.65 nM of labeled BH3 peptide and 4.2 μM of Bcl-xL-His6 fusion protein, which was previously utilized to characterize BH3/Bcl-xL binding (Sattler et al., Science 275:983-6, 1997) were used for the further fluorescence polarization analyses. Kd and Ki determination was performed as previously described using […] PRISM software package (GraphPad) (Dandliker et al., Methods Enzymol. 74:3-28,1981).
In a further screen, various concentrations of each of the above-identified compounds were evaluated for their potency. A serial dilution of each chemical compound was performed and the fluorescence polarization assay was repeated, as per the primary screen. As a result of the secondary screening, three compounds, chemical compound ID numbers 275805 (BH3I-1; FIG. 1), 282986 (BH3I-1′; FIG. 2), and 175362 (BH3I-2; FIG. 3), collectively termed “BH3Is,” were identified to disrupt the interaction between Bak and the BCL-xL/GST fusion protein. […] Additional homologues of the BH3I-1s (BH3I-1″ and BH3I-1′″) and BH3I-2 (BH3-2″ and BH3I-2″) were also analyzed in the study (FIG. 4). […]
(Polarisation of emitted light reports the rotation of a fluorescent probe.)

The subject of data set [2] is Jurkat cells. In words: Apoptosis in Jurkat cells (TUNEL, sub-G1 DNA, Annexin V). The following applies: BH3I-1 100 μM, BH3I-2 30 μM; for TUNEL staining: 48 hr; for sub-G1 DNA content: 72 hr, PI, FACS. Format: cell-based. As to the method:
FIG. 6C is a series of FACS analysis graphs showing Annexin V staining of Jurkat cells. Jurkat cells were treated with BH3I-1 (100 μM) or BH3I-2 (30 μM) and were stained 4 or 6 hr later with Annexin V-EGFP/PI. The relative amounts of live, apoptotic, and late apoptotic/necrotic cells are shown.
To further examine the ability of BH3Is to induce apoptosis, Jurkat cells were treated with BH3I-1 (100 μM) (FIG. 6A, panels a and b), BH3I-2 (30 μM) (FIG. 6A, panels c and d) or DMSO (FIG. 6A, panels e and f) for 48 hr. The cells were then stained using Hoechst dye and a FragEL TUNEL kit (Oncogene Research Products). […] This was determined by treating Jurkat cells with BH3I-1 (100 μM) or BH3I-2 (30 μM), fixing them 72 hr later, and staining them with propidium iodide (PI). The samples were analyzed by FACS. Finally, BH3Is induced the appearance of Annexin V binding without an increase in PI staining (FIG. 6C).

In data set [3] the test system is Jurkat cells. In words: Cytotoxicity by MTS assay and propidium iodide uptake. It counts as cell-based. Here is the method:
Since BH3Is induce apoptosis, their mode of action, for example, through disruption of BH3 domain interactions, was investigated next. If apoptosis induced by a BH3I is BH3-dependent, then cytotoxicity should correlate with the compound's ability to disrupt BH3 domain interactions in vitro. To examine this possibility, Jurkat cells were treated with the BH3 Is and the occurrence of cell death was assayed by the MTS assay and propidium iodide (PI) uptake (FIG. 7A). The cytotoxicity of BH3-Is followed the order of BH3I-2′>BH3I-2>BH3I-2″>BH3I-1>BH3I-1′>BH3I-1″>BH3I-1′″ which paralleled the order of their Ki values determined using in vitro Bcl-xL binding assays (FIGS. 7B and 7C). Similar data were obtained using a trypan blue exclusion assay.
(Formazan colour is commonly taken as a measure of viable cells.)

Setting [4] is: MTS assay and PI uptake, rank order.

Turning to `CC(C)C(C(=O)O)N1C(=O)C(=Cc2ccc(Br)cc2)SC1=S` (stereo in doubt) [BH3I-1], in the data set with FL5.12/Bcl-xL cells, the “cytotoxicity upon IL-3 deprivation” value is reported as “significantly increased upon IL-3 deprivation”. Moreover, in data set [1], the “order of affinities of BH3Is” value is “BH312′>BH3I-2>BH3I-2″>BH3I-1>BH3I-1′>BH3I-1″>BH3I-1′″” and the “order of decreasing affinity, fluorescence polarization assays” value (from here on “order of decreasing affinity”) was “BH3I-1>BH3I-1′>BH3I-2′>BH3I-2>BH3I-2″>BH3I-1″”. Besides, in the data set with Jurkat cells [2], the TUNEL staining result is “TUNEL positivity” and the “sub-G1 DNA content” value is on record as “displayed sub-G1 DNA content”. Also, the order of cytotoxicity entry in the data set on Jurkat cells [3] (setting [4]) was “BH3I-2′>BH3I-2>BH3I-2″>BH3I-1>BH3I-1′>BH3I-1″>BH3I-1′″”.
Regarding `O=C(Nc1cc(S(=O)(=O)c2ccc(Cl)cc2)ccc1Cl)c1cc(Cl)cc(Br)c1O` [BH3I-2], the “cytotoxicity upon IL-3 deprivation” value in the data set with FL5.12/Bcl-xL cells is reported as “significantly increased upon IL-3 deprivation”. In data set [1], the “order of affinities of BH3Is” value was “BH312′>BH3I-2>BH3I-2″>BH3I-1>BH3I-1′>BH3I-1″>BH3I-1′″” and the “order of decreasing affinity” value was “BH3I-1>BH3I-1′>BH3I-2′>BH3I-2>BH3I-2″>BH3I-1″”. In addition, in the data set with Jurkat cells [2], the TUNEL staining entry is on record as “TUNEL positivity” and the “sub-G1 DNA content” value is recorded as “displayed sub-G1 DNA content”. Besides, the order of cytotoxicity entry in the data set with Jurkat cells [3] (setting [4]) is on record as “BH3I-2′>BH3I-2>BH3I-2″>BH3I-1>BH3I-1′>BH3I-1″>BH3I-1′″”.
On to `CC(C)C(C(=O)O)N1C(=O)/C(=C/c2ccccc2)SC1=S` (stereo not drawn) [BH3I-1″], for which, in data set [1], the “order of affinities of BH3Is” value is “BH312′>BH3I-2>BH3I-2″>BH3I-1>BH3I-1′>BH3I-1″>BH3I-1′″” and the “order of decreasing affinity” value is on record as “BH3I-1>BH3I-1′>BH3I-2′>BH3I-2>BH3I-2″>BH3I-1″”. Further, the order of cytotoxicity result with Jurkat cells [3] was “BH3I-2′>BH3I-2>BH3I-2″>BH3I-1>BH3I-1′>BH3I-1″>BH3I-1′″”.

Values taken from patent US7390836B2, “Small molecules used to increase cell death” (priority 1999, dated 2008).
